Measurements as given in patent US20240252496A1, “SELECTIVE HYPOTHALAMUS PERMEABLE HDAC6 INHIBITORS FORTREATMENT OF LEPTIN-RESISTANT OBESITY” (The Children’s Medical Center Corporation, priority 2022, published 2024).
Several values for one entry are separate records, joined by “and”; a condition that tells them apart may be missing. Equal entries are not always repeated. Where two headings read alike, the source gives them in different places.

Experiments:
db/db mice = test: 3-week treatment of db/db mice; assay type: in vivo; conditions: for glucose tolerance (GTT): 1 week; for ITT: 2 weeks; for body weight heavier than initial body weight: end of 3 weeks, ACY775 10, ACY738 50 mg/kg i.p.
Method: Daily food intake (g), Serum leptin (ng/ml), lean mass (g), fat mass (g) and fat percentage (%) were measured after 3 weeks of treatment measured by DEXA scan. GTT was determined after 1 week of treatment. AOC analysis for GTT was performed and Blood glucose (mg/dl) levels were measured after 1 week of treatment. Blood glucose (mg/dl) levels and Serum insulin (ng/ml) levels were measured after 3 weeks of treatment. ITT was assessed after 2 weeks of treatment. H&E staining of the liver sections was conducted after 3 weeks of treatment.

HDAC6 KO mice = test: 3-week treatment of DIO WT versus HDAC6 KO mice; assay type: in vivo; conditions: for body weight, HDAC6 KO vs WT DIO mice: 3 weeks i.p., ACY775 10, ACY738 50, Tubastatin A 25 mg/kg/day; for fat mass and fat %, HDAC6 KO vs WT / lean mass, HDAC6 KO vs WT: DEXA; for blood glucose, serum insulin and leptin levels, HDAC6 KO vs WT / food intake, HDAC6 KO vs WT DIO mice / glucose tolerance and insulin sensitivity (GTT, ITT), HDAC6 KO vs WT: mouse, in vivo
WT lean mice = test: 3-week treatment of WT lean mice; assay type: in vivo; conditions: for lean mass, total fat mass, fat percentage / body weight: 3 weeks; for body weight: ACY775 10, ACY738 50 mg/kg i.p.; for liver morphology: end of treatment
Method: Daily food intake (g) during 3 weeks of treatment. Serum leptin (ng/ml) levels were measured after 3 weeks of treatment. Lean mass (g); fat mass (g) and fat percentage (%) after 3 weeks of treatment were measured by DEXA scan. GTT was measured after 1 week of treatment. AOC analysis for GTT was performed. Blood glucose (mg/dl) level was measured after 1 week of treatment. ITT was measured after 2 weeks of treatment. Serum insulin (ng/ml) levels were measured after 3 weeks of treatment.

DIO mice [1] = test: Conditioned place preference (CPP) assay in DIO mice; assay type: in vivo; conditions: fed and fasting conditions, vs vehicle
Method: DIO mice were treated with vehicle or ACY775 (10 mg/kg, i.p., once a day) for 3 days. On the fourth day, 1 h after the beginning of the light cycle, the mice were administered vehicle or ACY775 (10 mg/kg, i.p.) and the conditioned place preference (CPP) assay under the ad libitum feeding condition was utilized. The CPP assay was performed 6 h later under the ad libitum feeding condition (n=10 mice for both the Vehicle- and ACY775-treated groups). CPP assay under a 20-h fasting condition was also performed. DIG mice were treated with vehicle or ACY775 (10 mg/kg, i.p.) once a day and fasted for 15 h after the third injection. On the fourth day, 1 h after the beginning of the light cycle, the mice were administered vehicle or ACY775 (10 mg/kg body weight, i.p.) and the CPP assay was performed 5 h after this injection under the fasting condition (n=10 mice for both the Vehicle- and ACY775-treated groups).
Measurements were made of the total distance that the mice traveled during the CPP test, the average velocity of movement during the assay, the total time the mice spent in the dark chamber during the test; the frequency with which the mice traveled to the dark chamber during the test; the total time the mice spent in the food-paired white chamber; the frequency with which the mice traveled to the food paired white chamber; the total time the mice spent in the food-containing zone within the food-paired side chamber; and the frequency with which the mice traveled to the food-containing zone within the food-paired side chamber during the test.

DIO mice [2] = test: Single dose food intake in 24 h-fasted DIO mice; assay type: in vivo; conditions: ACY775 10, ACY738 50 mg/kg i.p.
Method: Food intake was analyzed hourly until 3:00 am. […] DEXA scans were performed in two different cohorts.

DIO mice [3] = test: Glucose homeostasis in chronically treated DIO mice (GTT, ITT, insulin, HOMA-IR, liver H&E); assay type: in vivo; conditions: for blood glucose levels / glucose tolerance (GTT): after 1 week; for circulating/serum insulin levels / hepatic steatosis (liver H&E) / insulin resistance (HOMA-IR): after 3 weeks
Method: DIO mice were treated with ACY775 (10 mg/kg/day, i.p.) for 3 weeks. Daily body weight (g) of DIO mice treated with vehicle (n=17) or ACY775 (n=17) during 3 weeks of treatment was determined. Daily food intake (g) during 3 weeks of vehicle or ACY775 treatment was assessed. 24 hours' food intake per mouse during the first week of vehicle or ACY775 treatment was determined. Serum leptin (ng/ml) levels after 3 weeks of vehicle (n=24) or ACY775 (n=24) treatment was assessed. Lean mass (g), fat mass (g) and fat percentage (%) after 3 weeks of vehicle (n=17) or ACY775 (n=17) treatment measured by Dual-energy X-ray absorptiometry (DEXA) scan. DEXA scans were performed in two different cohorts. Glucose tolerance test (GTT) after 1 week of vehicle (n=33) or ACY775 (n=26) treated DIO mice was assessed. Area of curve (AOC) analysis for GTT was performed. Blood glucose (mg/dl) levels after 1 week of vehicle (n=17) or ACY775 (n=16) were assessed in treated DIO mice. Insulin tolerance test (ITT) was performed after 2 weeks of vehicle (n=31) or ACY775 (n=21) treatment of DIO mice. Serum insulin (ng/ml) levels were measured after 3 weeks of vehicle (n=22) or ACY775 (n=21) in treated DIO mice. A homeostatic model assessment of insulin resistance (HOMA-IR) was analyzed after 3 weeks of vehicle (n=14) or ACY775 (n=13) treated DIO mice. […]
Blood glucose (mg/dl) levels were measured after 1 week of vehicle (n=16) or ricolinostat (n=16) treated DIO mice. GTT after 1 week of vehicle (n=17) or ricolinostat (n=16) treatment of DIO mice was assessed. AOC analysis for GTT was performed. ITT after 2 weeks of vehicle (n=17) or ricolinostat (n=16) treated DIG mice was measured. Serum insulin (ng/ml) levels after 3 weeks of vehicle (n=8) or ricolinostat (n=8) treatment were measured in DIO mice. Liver sections from 3 weeks of vehicle or ricolinostat treated DIG mice were stained by H&E.

DIO mice [4] = test: Metabolic cages (CLAMS) in DIO mice; assay type: in vivo; conditions: for energy expenditure: 3 days, ACY775 10, ACY738 50 mg/kg i.p.
Method: Diet induced obese (DIO) mice were placed into metabolic cages and received ACY775 (10 mg/kg, i.p., n=7) or vehicle (n=8) once a day for 3 days. Energy expenditure, respiratory exchange ratios (RER; VCO2/VO2), ambulatory count (physical activity) from each group of mice were determined. Bar graphs represent average of two dark (8-20 and 32-44 hr) and two light cycles ([…]).
Comprehensive Lab Animal Monitoring System (CLAMS) was used to measure metabolic parameters such as energy expenditure (EE) and respiratory exchange ratio (RER) and physical activity levels in Vehicle- and ACY775-treated mice.

[5] = cited from earlier work; for brain/plasma ratio: in vivo

| Compound | hepatic steatosis (db/db mice) | plasma insulin levels (db/db mice) | glucose tolerance (GTT) (db/db mice) | ITT (db/db mice) | body weight heavier than initial body weight (db/db mice) | body weight, HDAC6 KO vs WT DIO mice (HDAC6 KO mice) | fat mass and fat %, HDAC6 KO vs WT (HDAC6 KO mice) | lean mass, HDAC6 KO vs WT (HDAC6 KO mice) | blood glucose, serum insulin and leptin levels, HDAC6 KO vs WT (HDAC6 KO mice) | food intake, HDAC6 KO vs WT DIO mice (HDAC6 KO mice) | glucose tolerance and insulin sensitivity (GTT, ITT), HDAC6 KO vs WT (HDAC6 KO mice) | daily food intake (WT lean mice) | insulin sensitivity (ITT) and circulating insulin levels (WT lean mice) | lean mass, total fat mass, fat percentage (WT lean mice) | body weight (WT lean mice) | insulin tolerance test (ITT) / insulin sensitivity (DIO mice [3]) | blood glucose levels (DIO mice [3]) | glucose tolerance (GTT) (DIO mice [3]) | circulating/serum insulin levels (DIO mice [3]) | hepatic steatosis (liver H&E) (DIO mice [3]) | also measured |
| --- | --- | --- | --- | --- | --- | --- | --- | --- | --- | --- | --- | --- | --- | --- | --- | --- | --- | --- | --- | --- | --- |
| O=C(NO)c1cnc(NC2(c3ccccc3)CC2)nc1 [ACY738] | did not improve hepatic steatosis | did not show any significant alterations | no difference in glucose tolerance | no significant difference in blood glucose levels | 2.53%±0.97% | slight decrease in the HDAC6KO mice | significantly lower in the wt group | not different | significantly higher in the ACY738-treated HDAC6 KO group | significantly higher in the HDAC6 KO group | did not improve glucose tolerance and increase insulin sensitivity in the HDAC6 KO mice | similar | no significant difference in insulin sensitivity and circulating insulin levels | did not detect any alterations | neither ACY775 nor ACY738 affected the body weight | improved insulin tolerance | significantly reduced | significant improvement of glucose homeostasis | reduced insulin levels | improved hepatic steatosis | reduction of bodyweight of the wt mice (HDAC6 KO mice; DIO wt mice, ACY738 50 mg/kg i.p.): around 20%; liver morphology (WT lean mice): similar; CPP: cumulative duration in dark side chambers (DIO mice [1]): no significant differences in cumulative duration; CPP: time and frequency in food-containing white side chambers (DIO mice [1]): spent similar time and frequency of appearance; CPP: time and frequency in the food zone (DIO mice [1]): significantly shorter time and displayed lower frequency of appearance in the food zone; food intake after a single dose (DIO mice [2]): significantly reduced/blocked the food intake; insulin resistance (HOMA-IR) (DIO mice [3]): ameliorated insulin resistance; energy expenditure (DIO mice [4]): higher energy expenditure in light cycle, though without significant difference in dark cycle |
| O=C(CCCCCCNC(=O)c1cnc(N(c2ccccc2)c2ccccc2)nc1)NO [Ricolinostat] |  |  |  |  |  |  |  |  |  |  |  |  |  |  |  | did not improves glucose tolerance (FIG. 8M) or insulin sensitivity | did not reduce blood glucose levels | did not improves glucose tolerance | did not reduce insulin levels | no decrease in the hepatic steatosis | brain/plasma ratio [5]: 0.01 and < 0.01; brain/plasma ratio ([5]; listed as ricolinostat): 0.01; brain penetrance / BBB permeability ([5]; in words): poor BBB permeability |
| O=C(NO)c1cnc(NC2(c3cccc(F)c3)CCCCC2)nc1 [ACY775, 2-[[1-(3-fluorophenyl)cyclohexyl]amino]-N-hydroxy-5-pyrimidinecarboxamide] | did not improve hepatic steatosis | did not show any significant alterations | no difference in glucose tolerance | no significant difference in blood glucose levels | 3.82%±0.99% | highly significant decrease in the bodyweight of the WT DIO mice when compared to HDAC6 KO DIG mice | significantly lower in the wt group | not different | significantly higher in the ACY775-treated HDAC6 KO group | blocked in the HDAC6 KO mice | could not increase glucose tolerance and insulin sensitivity in the HDAC6 KO mice | similar | no significant difference in insulin sensitivity and circulating insulin levels | did not detect any alterations | neither ACY775 nor ACY738 affected the body weight | significant difference between ACY775-treated mice and those treated with vehicles | significantly reduced | significantly improved glucose tolerance | significantly reduced the circulating insulin levels | almost completely abolished hepatic steatosis | fasting blood glucose after the first week (db/db mice): lower in ACY775-treated mice than vehicle-treated mice; food intake (db/db mice): transitionally reduced by ACY775 treatment during the first 2 days; blood glucose lowering at the end of treatment period (db/db mice; 3 weeks): completely diminished; liver morphology (WT lean mice): similar; CPP: appearance frequency in dark side chambers (DIO mice [1]): similar; CPP: cumulative duration in dark side chambers (DIO mice [1]): no significant differences in cumulative duration; CPP: time and frequency in food-containing white side chambers (DIO mice [1]): significantly shorter time and had lower frequency of appearance in the food-containing white side chambers; CPP: time and frequency in the food zone (DIO mice [1]): significantly shorter time and displayed lower frequency of appearance in the food zone; food intake after a single dose (DIO mice [2]): significantly reduced/blocked the food intake; insulin resistance (HOMA-IR) (DIO mice [3]): significantly reduced the insulin resistance; energy expenditure (DIO mice [4]): higher in the both dark and light cycle; respiratory exchange ratio (RER) (DIO mice [4]; dark and light cycles): significantly decreased; brain/plasma ratio [5]: 1.26 |
